# ChEMBL document CHEMBL1201862, “PubChem BioAssay data set” (2004)
#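 96-well plates; 48 h exposure; 5 concentrations. Endpoints by linear interpolation between flanking doses. Not reached: highest tested concentration assigned. Abbreviation: GI50, concentration required for 50% inhibition of growth.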 Calls of active or inactive are those of the source. Rule as the data show it: active = GI50 up to about 1.1 µM and inactive = higher.
# What was measured:
# Assay in all cases: NCI anticancer screen, dose series, 48 h
# OVCAR-5 = test system: OVCAR-5
# KM12 = test system: KM12
# DMS-273 = test system: DMS-273
# U-251 = test system: U-251
# SF-295 = test system: SF-295
# LXFL 529 = test system: LXFL 529
# CCRF-CEM = test system: CCRF-CEM
# UO-31 = test system: UO-31
# NCI-H460 = test system: NCI-H460
# RXF 393 = test system: RXF 393
# TK-10 = test system: TK-10
# A549 = test system: A549
# NCI-H226 = test system: NCI-H226
# HL-60 = test system: HL-60
# NCI-H522 = test system: NCI-H522
# K562 = test system: K562
# HCT-116 = test system: HCT-116
# SW-620 = test system: SW-620
# SNB-75 = test system: SNB-75
# OVCAR-8 = test system: OVCAR-8
# 786-0 = test system: 786-0
# M14 = test system: M14
# M19-MEL = test system: M19-MEL
# HOP-92 = test system: HOP-92
# HCT-15 = test system: HCT-15
# HCC 2998 = test system: HCC 2998
# SR = test system: SR
# SNB-78 = test system: SNB-78
# SK-MEL-2 = test system: SK-MEL-2
# LOX IMVI = test system: LOX IMVI
# SNB-19 = test system: SNB-19
# Malme-3M = test system: Malme-3M
# A498 = test system: A498
# HOP-62 = test system: HOP-62
# KM-20L2 = test system: KM-20L2
# NCI-H23 = test system: NCI-H23
# UACC-257 = test system: UACC-257
# DMS-114 = test system: DMS-114
# EKVX = test system: EKVX
# SK-OV-3 = test system: SK-OV-3
# UACC-62 = test system: UACC-62
# HOP-18 = test system: HOP-18
# XF498 = test system: XF498
# SF-268 = test system: SF-268
# MOLT-4 = test system: MOLT-4
# SK-MEL-5 = test system: SK-MEL-5
# DLD-1 = test system: DLD-1
# RPMI-8226 = test system: RPMI-8226
# OVCAR-3 = test system: OVCAR-3
# COLO 205 = test system: COLO 205
# SK-MEL-28 = test system: SK-MEL-28
# OVCAR-4 = test system: OVCAR-4
# CAKI-1 = test system: CAKI-1
# ACHN = test system: ACHN
# HT-29 = test system: HT-29
# SF-539 = test system: SF-539
# SN12C = test system: SN12C
# IGROV-1 = test system: IGROV-1
compound,measurement,setting,value
CC(N)Cc1ccc(Cl)c(Cl)c1 (stereo unspecified),GI50,OVCAR-5,30.1 µM (inactive)
same,GI50,KM12,10.6 µM (inactive)
same,GI50,DMS-273,39.4 µM (inactive)
same,GI50,U-251,42.7 µM (inactive)
same,GI50,SF-295,> 52.2 µM (inactive)
same,GI50,LXFL 529,19.1 µM (inactive)
same,GI50,CCRF-CEM,28.2 µM (inactive)
same,GI50,UO-31,19.8 µM (inactive)
same,GI50,NCI-H460,30.1 µM (inactive)
same,GI50,RXF 393,24.9 µM (inactive)
same,GI50,TK-10,22.6 µM (inactive)
same,GI50,A549,> 100 µM (inactive)
same,GI50,NCI-H226,33.6 µM (inactive)
same,GI50,HL-60,18.6 µM (inactive)
same,GI50,NCI-H522,29.6 µM (inactive)
same,GI50,K562,21.7 µM (inactive)
same,GI50,HCT-116,35.1 µM (inactive)
same,GI50,SW-620,22 µM (inactive)
same,GI50,SNB-75,23.3 µM (inactive)
same,GI50,OVCAR-8,> 66.2 µM (inactive)
same,GI50,786-0,41.5 µM (inactive)
same,GI50,M14,18.4 µM (inactive)
same,GI50,M19-MEL,24.2 µM (inactive)
same,GI50,HOP-92,22.6 µM (inactive)
same,GI50,HCT-15,30 µM
same,GI50,HCC 2998,17.3 µM (inactive)
same,GI50,SR,20.5 µM (inactive)
same,GI50,SNB-78,28.4 µM (inactive)
same,GI50,SK-MEL-2,19.4 µM (inactive)
same,GI50,LOX IMVI,27.2 µM (inactive)
same,GI50,SNB-19,> 96.6 µM (inactive)
same,GI50,Malme-3M,19.6 µM (inactive)
same,GI50,A498,45 µM (inactive)
same,GI50,HOP-62,39.5 µM (inactive)
same,GI50,KM-20L2,22.9 µM (inactive)
same,GI50,NCI-H23,> 95.1 µM (inactive)
same,GI50,UACC-257,22.9 µM (inactive)
same,GI50,DMS-114,24.2 µM (inactive)
same,GI50,EKVX,41.5 µM (inactive)
same,GI50,SK-OV-3,74.8 µM (inactive)
same,GI50,UACC-62,22.8 µM (inactive)
same,GI50,HOP-18,27.8 µM (inactive)
same,GI50,XF498,10.9 µM (inactive)
same,GI50,SF-268,71.8 µM (inactive)
same,GI50,MOLT-4,29.2 µM (inactive)
same,GI50,SK-MEL-5,16.6 µM (inactive)
same,GI50,DLD-1,34.4 µM (inactive)
same,GI50,RPMI-8226,34.8 µM (inactive)
same,GI50,OVCAR-3,69.3 µM (inactive)
same,GI50,COLO 205,20.3 µM (inactive)
same,GI50,SK-MEL-28,20.4 µM (inactive)
same,GI50,OVCAR-4,67.8 µM (inactive)
same,GI50,CAKI-1,23.6 µM (inactive)
same,GI50,ACHN,26.8 µM (inactive)
same,GI50,HT-29,24.3 µM (inactive)
same,GI50,SF-539,12.4 µM (inactive)
same,GI50,SN12C,30.2 µM (inactive)
same,GI50,IGROV-1,51.6 µM (inactive)
COc1cc(CNC2c3cc4c(cc3C(c3cc(OC)c(OC)c(OC)c3)[C@H]3C(=O)OCC23)OCO4)cc(OC)c1OC (stereo partly specified),GI50,OVCAR-5,> 100 µM (inactive)
same,GI50,KM12,0.177 µM (active)
same,GI50,DMS-273,0.237 µM (active)
same,GI50,U-251,0.318 µM (active)
same,GI50,SF-295,0.137 µM (active)
same,GI50,LXFL 529,0.356 µM (active)
same,GI50,CCRF-CEM,0.35 µM (active)
same,GI50,UO-31,0.792 µM (active)
same,GI50,NCI-H460,0.29 µM (active)
same,GI50,RXF 393,0.308 µM (active)
same,GI50,TK-10,> 100 µM (inactive)
same,GI50,A549,0.417 µM (active)
same,GI50,NCI-H226,0.128 µM (active)
same,GI50,HL-60,0.223 µM (active)
same,GI50,NCI-H522,0.0661 µM (active)
same,GI50,K562,0.298 µM (active)
same,GI50,HCT-116,0.245 µM (active)
same,GI50,SW-620,0.416 µM (active)
same,GI50,SNB-75,0.535 µM (active)
same,GI50,OVCAR-8,0.247 µM (active)
same,GI50,786-0,0.428 µM (active)
same,GI50,M14,0.447 µM (active)
same,GI50,M19-MEL,1.28 µM (inactive)
same,GI50,HOP-92,0.528 µM (active)
same,GI50,HCT-15,0.324 µM
same,GI50,HCC 2998,0.305 µM (active)
same,GI50,SR,0.314 µM (active)
same,GI50,SK-MEL-2,0.426 µM (active)
same,GI50,LOX IMVI,0.288 µM (active)
same,GI50,SNB-19,0.272 µM (active)
same,GI50,Malme-3M,> 100 µM (inactive)
same,GI50,A498,0.254 µM (active)
same,GI50,HOP-62,0.231 µM (active)
same,GI50,KM-20L2,0.197 µM (active)
same,GI50,NCI-H23,0.267 µM (active)
same,GI50,UACC-257,> 100 µM (inactive)
same,GI50,DMS-114,0.197 µM (active)
same,GI50,SK-OV-3,0.385 µM (active)
same,GI50,UACC-62,0.156 µM (active)
same,GI50,HOP-18,55.5 µM (inactive)
same,GI50,XF498,0.364 µM (active)
same,GI50,SF-268,0.372 µM (active)
same,GI50,MOLT-4,0.367 µM (active)
same,GI50,SK-MEL-5,0.216 µM (active)
same,GI50,DLD-1,0.41 µM (active)
same,GI50,RPMI-8226,0.419 µM (active)
same,GI50,OVCAR-3,0.627 µM (active)
same,GI50,COLO 205,0.18 µM (active)
same,GI50,ACHN,0.42 µM (active)
same,GI50,HT-29,0.335 µM (active)
same,GI50,SF-539,0.191 µM (active)
same,GI50,SN12C,0.376 µM (active)
same,GI50,IGROV-1,1.1 µM (active)
